The source of these data is EP0855398B1, “SESQUITERPENE DERIVATIVES HAVING ANTIVIRAL ACTIVITY” (SHIONOGI & CO., LTD., priority 1995, dated 1997).

The test system of data set [1] is Influenza virus A/WSN/33 (H1N1). Briefly: microbe, parasite or virus in culture. Particulars: 72 h; viral strain: Influenza virus A/WSN/33 (H1N1); Cell: MDBK; […]; 3 days; read-out: IC50. Format: cell-based.
Data set [2] is described as follows: in vitro. The settings on record: bovine.

Converted amounts (≈) assume the structure as drawn.

The IC50 is the concentration that inhibits the measured activity by half. On to `C[C@H]1CC[C@H]2C(C)(C)C=CC[C@]23Oc2c(c(O)cc4c2CNC4=O)C[C@]13C` [Compound (41a), (6a R, 7 S, 9a S, 13a S)-2,3,6,6a, 7,8,9,9a, 10, 13-decahydro-5-hydroxy-6a, 7, 10, 10-tetramethyl-3-oxo-1H-benzo[8,8a][1]benzopyrano[2,3-e]isoindole], for which the 50% inhibitory concentration (IC50) in data set [1] was 0.002 µg/mL (≈ 0.00544 µM). This compound gave a CC50 in data set [2] of 5 µg/mL (≈ 13.6 µM).
Regarding `C[C@H]1CC[C@H]2C(C)(C)[C@@H](NC(=O)Nc3ccccc3)CC[C@]23Oc2c(c(O)cc4c2CNC4=O)C[C@]13C` [Compound (47e), (6aR, 7S, 9aS, 11S, 13aS)-2,3,6,6a, 7,8,9,9a, 10, 11, 12, 13-dodecahydro-5-hydroxy-6a, 7, 10, 10-tetramethyl-11-(3-phenylureido)-3-oxo-1H-benzo[8,8a][1]benzopyrano[2,3-e]isoindole], the half-maximal inhibitory concentration (IC50) in data set [1] amounted to 0.025 µg/mL (≈ 0.0496 µM). Further, the CC50 in data set [2] is more than 10 µg/mL.
`C[C@H]1CC[C@H]2C(C)(C)C(=NN3CCOCC3)CC[C@]23Oc2c(c(O)cc4c2CNC4=O)C[C@]13C` [Compound (51f), (6aR, 7S, 9aS, 13aS)-2,3,6,6a, 7,8,9,9a, 10, 11, 12, 13-dodecahydro-5-hydroxy-6a, 7, 10, 10-tetramethyl-11-(1-oxa-4-azacyclohex-4-yl)imino-3-oxo-1H-benzo[8,8a][1]benzopyrano[2,3-e]isoindole]: in data set [1], the IC50 turned out to be 0.05 µg/mL (≈ 0.107 µM). Further, the CC50 in data set [2] was determined as 25 µg/mL (≈ 53.5 µM).
Take `C[C@H]1CC[C@H]2C(C)(C)[C@H](O)CC[C@]23Oc2c(c(O)cc4c2C(=O)NC4=O)C[C@]13C` [Compound (70), (6aR, 7S, 9aS, 11R, 13aS)-2,3,6,6a, 7,8,9,9a, 10, 11, 12, 13-dodecahydro-5, 11-dihydroxy-6a, 7, 10, 10-tetramethyl-13-dioxo-1H-benzo[8,8a][1]benzopyrano[2,3-e]isoindole]: the IC50 in data set [1] amounted to 0.008 µg/mL (≈ 0.02 µM). This compound returned a CC50 at 72 h in data set [2] (mdbk cells) of 12.5 to 25 µg/mL (≈ 31.3 to 62.6 µM).
In the case of `CCCCN1Cc2c(cc(O)c3c2O[C@@]24CC[C@H](O)C(C)(C)[C@@H]2CC[C@H](C)[C@@]4(C)C3)C1=O` [Compound (28b), (6aR, 7S, 9aS, 11S, 13aS)-2-butyl-2,3,6,6a, 7,8,9,9a, 10, 11, 12, 13-dodecahydro-5, 11-dihydroxy-6a, 7, 10, 10-tetramethyl-3-oxo-1H-benzo[8,8a][1]benzopyrano[2,3-e]isoindole], the IC50 in data set [1] was determined as 0.02 µg/mL (≈ 0.0453 µM). Moreover, in data set [2], the CC50 was found to be 2.5 µg/mL (≈ 5.66 µM).
For `C[C@H]1CC[C@H]2C(C)(C)[C@@H](N)CC[C@]23Oc2c(c(O)cc4c2CNC4=O)C[C@]13C` [Compound (47a), (6aR, 7S, 9aS, 11S, 13aS)-11-amino-2,3,6,6a, 7,8,9,9a, 10, 11, 12, 13-dodecahydro-5-hydroxy-6a, 7, 10, 10-tetramethyl-3-oxo-1H-benzo[8,8a][1]benzopyrano[2,3-e]isoindole] the same measures were 0.02 µg/mL (≈ 0.052 µM) and more than 10 µg/mL.
`C[C@H]1CC[C@H]2C(C)(C)[C@@H](O)[C@@H](O)C[C@]23Oc2c(c(O)cc4c2CNC4=O)C[C@]13C` [Compound (50a), (6a R, 7 S, 9a S, 11 R, 12 S, 13a S)-2,3,6,6a, 7,8,9,9a, 10, 11, 12, 13-dodecahydro-5,11,12-trihydroxy-6a, 7, 10, 10-tetramethyl-3-oxo-1H-benzo[8,8a][1]benzopyrano[2,3-e]isoindole]: the 50% inhibitory concentration (IC50) in data set [1] was determined as 0.004 µg/mL (≈ 0.00996 µM). The compound further had a CC50 in data set [2] of more than 40 µg/mL.
For the compound `CC(=O)O[C@@H]1C(=NO)C[C@@]23Oc4c(c(O)cc5c4CNC5=O)C[C@]2(C)[C@@H](C)CC[C@H]3C1(C)C` [Compound (53b), (6aR, 7S, 9aS, 11S, 13aS)-11-acetoxy-2,3,6,6a, 7,8,9,9a, 10, 11, 12, 13-dodecahydro-5-hydroxy-12-hydroxyimino-6a, 7, 10, 10-tetramethyl-3-oxo-1H-benzo[8,8a][1]benzopyrano[2,3-e]isoindole], in data set [1], the 50% inhibitory concentration (IC50) came out at 0.08 µg/mL (≈ 0.175 µM). The CC50 in data set [2] is more than 10 µg/mL.
